This passage reports GI50 results from patent US20060241114A1, “Derivatives of azasugars as anticancer agents” (priority 2003, published 2006).

The subject of assay [1] is MCF7 (breast adenocarcinoma). The assay is described as follows: In vitro growth inhibition screen (sulphorhodamine B), MCF7. It counts as cell-based, human. The following applies: MCF7 cells, incubated for 48 hours, sulphorhodamine B dye; read-out: GI50 (concentration which inhibits the cell growth by 50%), MCF7 Breast adenocarcinoma. A digest of the protocol: (§1)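 SRB assay, 48 h treatment, RPMI 1640 + 10% FCS, 37° C, 5% CO2; dose range ≧100 μM–10 nM in ten-fold steps; OD 490 nm; GI50 derived.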

Assay [2] deals with MCF7ADR (adriamycin resistant breast adenocarcinoma). The assay is described as follows: In vitro growth inhibition screen (sulphorhodamine B), MCF7ADR. The class given is cell-based, human. The settings on record: MCF7ADR cells, incubated for 48 hours, sulphorhodamine B dye; read-out: GI50 (concentration which inhibits the cell growth by 50%), MCF7ADR Adriamycin Resistant Breast adenocarcinoma. Put shortly: as §1
In general terms: The SRB assay estimates cell density from bound dye.

The test system of a further assay is LOX (melanoma). The assay is described as follows: In vitro growth inhibition screen (sulphorhodamine B), LOX. The settings on record: LOX cells, incubated for 48 hours, sulphorhodamine B dye; read-out: GI50 (concentration which inhibits the cell growth by 50%), LOX Melanoma. The class given is cell-based, human. A digest of the protocol:
as §1

For assay [3], the system named is HT29 (colorectal adenocarcinoma). The assay is described as follows: In vitro growth inhibition screen (sulphorhodamine B), HT29. It counts as cell-based, human. The following applies: HT29 cells, incubated for 48 hours, sulphorhodamine B dye; read-out: GI50 (concentration which inhibits the cell growth by 50%), HT29 Colorectal adenocarcinoma. A digest of the protocol:
as §1

The subject of assay [4] is DU145 (prostate carcinoma). The assay is described as follows: In vitro growth inhibition screen (sulphorhodamine B), DU145. It counts as cell-based, human. The settings on record: DU145 cells, incubated for 48 hours, sulphorhodamine B dye; read-out: GI50 (concentration which inhibits the cell growth by 50%), DU145 Prostate carcinoma. Put shortly:
as §1

In assay [5] the test system is U251 (human glioblastoma). The assay is described as follows: In vitro growth inhibition screen (sulphorhodamine B), U251. The class given is cell-based. The following applies: U251 cells, incubated for 48 hours, sulphorhodamine B dye; read-out: GI50 (concentration which inhibits the cell growth by 50%), U251 Human glioblastoma astrocytoma. A digest of the protocol:
as §1

Regarding `CCCN1C(=O)[C@H](O)[C@@H](O)[C@H](O)[C@H]1CN1C(=O)CCC1=O` [Compound No. 86, 6-(2,5-Diketopyrrolidino)-N-propyl-D-gluco-δ-actam], the GI50 in assay [1] was determined as 36.2 µM; in assay [2] it was 52.2 µM; in the assay on LOX (melanoma) it was 37.5 µM; in assay [3], 44.4 µM; in assay [4], 38.5 µM; in assay [5], 34.4 µM.
Regarding `CCCN1C(=O)[C@H](OCc2ccccc2)[C@@H](OCc2ccccc2)[C@H](OCc2ccccc2)[C@H]1CNC(=O)CN1CCN(c2cccc(C(F)(F)F)c2)CC1` [Compound No. 65, 2,3,4-Tri-O-benzyl-6-N-{2-[4-(3-(trifluoromethyl)phenyl)piperazin-1-yl]acetyl}-N-propyl-D-gluco-δ-lactam], the GI50 stood at 2 µM in assay [1]; 3.5 µM in assay [2]; 4 µM in the assay with LOX (melanoma); 5.6 µM in assay [3]; 13.1 µM in assay [4]; 3.4 µM in assay [5].
`CCCN1C(=O)[C@H](OCc2ccccc2)[C@@H](OCc2ccccc2)[C@H](OCc2ccccc2)[C@H]1CNC(=S)Nc1ccc2ccccc2c1` [Compound No. 2, 2,3,4-Tri-O-benzyl-6-N-{[2-naphthyl]aminothiocarbonylamino}-N-propyl-D-gluco-δ-lactam]: the GI50 in assay [1] came out at 175 µM; in assay [2] it was 229 µM; in the assay on LOX (melanoma), 40.9 µM; in assay [3], 137 µM; in assay [4] it was 151 µM; in assay [5], 172 µM.
